# Experimental data: patent US5929082A, “Potassium ion channel blockers” (priority 1995, dated 1999)
# Experiments:
# [1] = Kinetic/metabolite studies: HPLC analysis of plasma after oral administration; assay type: in vivo, Sprague-Dawley rats; conditions: for Compound in plasma / metabolites observed in plasma: after oral administration, HPLC; for metabolites observed in plasma: in words
# Protocol: Plasma samples were collected in order to test the correlation of plasma drug (or metabolite) concentration with hypoglycaemic activity, and to determine whether compounds of the invention were converted in vivo into active metabolites. The plasma levels of test compounds or metabolites also give an indication of rate of metabolism and kinetics of drug action.
# Blood samples collected from rats treated as above and collected at the same intervals were analysed using an ICI LC1150 HPLC system and a LC1210 UV detector at a wavelength of 227 nm. The HPLC system used a Merck LiChroCART 125-4 LiChrosphere 100 RP-18 HPLC and LiChrosphere 100 RP-18 guard columns. The mobile phase consisted of 70% acetonitrile and a 30% aqueous sodium phosphate buffer at pH 7.45 and was prepared using standard HPLC grade reagents and distilled water. To improve the resolution of peaks and separation of the compounds a gradient method was established where changes in the concentration of the required buffers and solvents, and the time at which these changes occur is outlined in Table 7. The volumes are expressed as percentages of the total flow rate, with the flow rate remaining constant at […].
# The data were acquired using the WinChrom Data Management system and were calibrated using stock solutions of the test compounds and Glibenclamide as an internal standard dissolved in 100% methanol
# Plasma (250 μL) collected from the rats were extracted into methanol (700 μL) and 50 μL of Glibenclamide (25 μg/ml). The mixture was then agitated with a vortex mixer for 15 sec and centrifuged for 10 min. The clear supernatant was then carefully aspirated for HPLC analysis.
# The results are outlined in Table 8 and show retention times (minutes) for the compounds and their metabolites as analysed by HPLC after oral administration in Sprague-Dawley rats. […] Glibenclamide is shown for comparison only, none of the metabolites observed with the test compounds correspond to metabolites of Glibenclamide.
# [2] = Hypoglycaemic activity: change in blood glucose after oral gavage; assay type: in vivo, Sprague Dawley rats; conditions: 1.6 mg/kg oral gavage, normal fed male rats
# Protocol: The biological activity of representative compounds of the invention was evaluated by means of several different tests. The activity of compounds of this invention as hypoglycaemic agents was measured and compared with the activity of the known compound of Example 1, using methods described in the literature. Thus normal, fed male Sprague Dawley rats weighing between 275 and 375 g were studied for changes in blood sugar levels and alterations to mean arterial blood pressure following administration of representative compounds of the invention suspended in a 5% solution of gum acacia by oral gavage at a dose of 1.6 mg/kg. The concentration of each compound was 4 mg in 10 ml, so that each rat received 1.1-1.5 ml to obtain the desired dose on a body weight basis. The blood sugar levels were recorded for each rat immediately prior to administration, and at 1, 2, and 3 hr following administration of the test compounds. Blood glucose levels were determined on blood samples taken from the tail, and analysed on an Ames blood glucometer, model 5626, and Ames, 2627 blood glucose strips (number 2). […] It is apparent that generally the heterocyclic sulphonylthioureas have greater activity than the sulphonylureas. Without wishing to be bound by any proposed mechanism for the observed effect, we believe that this may be associated with differences in lipid permeability.
# [3] = system: isolated guinea pig atria; assay: Cardiac effects on isolated atrial preparations; parameters: species or system English short-haired guinea pigs; conditions: bath concentration 8×10^-6 M, 37° C., maximum responses
# Protocol: Preliminary investigations were performed on isolated atrial preparations, and the results obtained using representative compounds of the invention compared to those obtained using the known compound of Example 1 and using Glibenclamide. English short-haired guinea pigs weighing between 200 and 300 g were killed by cervical dislocation. The whole heart was quickly removed by dissection and immersed in a Krebs-Henseleit solution, which had been aerated with carbogen (95% oxygen and 5% carbon dioxide). The atria were then separated by dissection in Krebs-Henseleit solution, whilst being aerated with carbogen.
# The atria were then immersed in a 10 ml organ bath containing Krebs-Henseleit solution, maintained at 37° C. for the duration of the experiment by the circulation of water through the water jackets of organ baths by a temperature controlled water pump (Braun Thermomix, Germany), and aerated with carbogen. […] Changes in tension were measured by isometric force transducers and were recorded on a four channel Grass 7P Polygraph (Grass Instruments, Quincy, Mass., USA) which was calibrated daily such that the atria functioned with a resting tension of 1 g. The rate of beating of the atria was measured by the tachograph.
# The activity of each test compound was assessed and compared to that of glibenclamide. […]
Compound,Compound in plasma [1],metabolites observed in plasma [1],time within which the compound is metabolised after administration ([1]; oral administration),"Change in Blood Glucose, 0 hours [2]","Change in Blood Glucose, 1 Hour [2]","Change in Blood Glucose, 2 Hours [2]","Change in Blood Glucose, 3 Hours [2]",inotropic activity [3]
"CCOc1cc(NC(=S)NS(=O)(=O)c2ccc(C)cc2)ccn1 [Compound 3-15, N-[(4-Methylphenyl)sulphonyl]-N'-(2-ethoxypyrid-4-yl)thiourea]",no,numerous metabolites in the plasma,≤ 2 h,–,–,–,–,–
"Cc1ccc(S(=O)(=O)NC(=S)Nc2cccc(Br)n2)cc1 [Compound 1-21, N-[(4-Methylphenyl)sulphonyl]-N'-(6-bromopyrid-2-yl)thiourea]",–,–,–,0.0 mmol/L,-0.9 mmol/L,-2.1 mmol/L,-0.7 mmol/L,–
"Cc1ccc(S(=O)(=O)NC(=S)Nc2ccncc2)cc1 [Compound 3-23, N-[(4-Methylphenyl)sulphonyl]-N'-(4-pyridyl)thiourea]",–,–,–,0.0 mmol/L,-1.0 mmol/L,-1.4 mmol/L,-2.1 mmol/L,particularly marked inotropic activity
"CCOc1cccc(NC(=O)NS(=O)(=O)c2ccc(C)cc2)n1 [Compound 1-4, N-[(4-Methylphenyl)sulphonyl]-N'-(6-ethoxypyrid-2-yl)urea]",yes,no metabolites were observed in the 4 hour period,–,–,–,–,–,–
"Cc1ccc(S(=O)(=O)NC(=O)Nc2nc(C)cc(C)n2)cc1 [Compound of Example 1, reference compound]",–,–,–,0.0 mmol/L,-0.8 mmol/L,-2.1 mmol/L,-0.8 mmol/L,–
"Cc1ccc(S(=O)(=O)NC(=S)Nc2nc(C)cc(C)n2)cc1 [Compound 4-36, N-[(4-Methylphenyl)sulphonyl]-N'-(4,6-dimethylypyrimid-2-yl)thiourea]",–,–,–,0.0 mmol/L,-1.1 mmol/L,-1.6 mmol/L,-1.3 mmol/L,–
